Our source for the % of control, % of inhibition and dTM values is ChEMBL document CHEMBL5465560, “Selectivity Literature for EUbOPEN Chemogenomic Library” (2024).

Assay [1] deals with T1, cGMP-dependent protein kinase 1 (Homo sapiens) (UniProt Q13976).
T1 sequence (whole entry): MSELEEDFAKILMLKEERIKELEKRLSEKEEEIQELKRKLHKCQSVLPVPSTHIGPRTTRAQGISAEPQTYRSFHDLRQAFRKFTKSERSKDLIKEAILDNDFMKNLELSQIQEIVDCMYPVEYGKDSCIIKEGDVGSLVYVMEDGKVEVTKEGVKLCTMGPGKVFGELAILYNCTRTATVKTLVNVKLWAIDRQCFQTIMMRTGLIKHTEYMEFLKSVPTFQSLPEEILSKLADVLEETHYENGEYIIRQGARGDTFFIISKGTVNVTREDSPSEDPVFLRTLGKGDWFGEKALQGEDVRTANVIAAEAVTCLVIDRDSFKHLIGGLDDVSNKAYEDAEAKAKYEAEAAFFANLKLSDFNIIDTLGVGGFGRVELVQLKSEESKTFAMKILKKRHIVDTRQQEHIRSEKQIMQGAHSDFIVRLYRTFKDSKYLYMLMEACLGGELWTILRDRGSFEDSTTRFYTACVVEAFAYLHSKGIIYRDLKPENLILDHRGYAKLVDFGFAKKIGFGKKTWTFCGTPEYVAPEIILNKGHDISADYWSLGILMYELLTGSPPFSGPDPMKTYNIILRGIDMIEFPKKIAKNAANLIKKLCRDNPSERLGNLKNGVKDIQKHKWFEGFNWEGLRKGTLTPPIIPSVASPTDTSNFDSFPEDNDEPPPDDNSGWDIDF
Description: Selectivity interaction (Kinase panel (Z-LYTE Assay)) EUB0001632a PRKG1. The following applies: at 10 µM.

Assay [2] deals with Interferon-induced, double-stranded RNA-activated protein kinase (Homo sapiens) (UniProt P19525). Description: Selectivity interaction (KinomeScan (DiscoverX)) EUB0000595a EIF2AK2. The conditions noted are these: at 10 µM.
The target in assay [3] is Calcium/calmodulin-dependent protein kinase type II subunit beta (Homo sapiens) (UniProt Q13554). Description: Selectivity interaction (SelectScreen profiling (Invitrogen)) EUB0000607a CAMK2B. The following applies: at 2 µM.
The target in assay [4] is MAP/microtubule affinity-regulating kinase 3 (Homo sapiens) (UniProt P27448). Description: Selectivity interaction (ActivX KiNativ screen (kinase selectivity in THP-1 cell lysates)) EUB0000639a MARK3. The following applies: lysate, at 0.01 µM. Format: subcellular.
For assay [5], the target named is T2, Tyrosine-protein kinase Mer (Homo sapiens) (UniProt Q12866).
T2 sequence (whole entry): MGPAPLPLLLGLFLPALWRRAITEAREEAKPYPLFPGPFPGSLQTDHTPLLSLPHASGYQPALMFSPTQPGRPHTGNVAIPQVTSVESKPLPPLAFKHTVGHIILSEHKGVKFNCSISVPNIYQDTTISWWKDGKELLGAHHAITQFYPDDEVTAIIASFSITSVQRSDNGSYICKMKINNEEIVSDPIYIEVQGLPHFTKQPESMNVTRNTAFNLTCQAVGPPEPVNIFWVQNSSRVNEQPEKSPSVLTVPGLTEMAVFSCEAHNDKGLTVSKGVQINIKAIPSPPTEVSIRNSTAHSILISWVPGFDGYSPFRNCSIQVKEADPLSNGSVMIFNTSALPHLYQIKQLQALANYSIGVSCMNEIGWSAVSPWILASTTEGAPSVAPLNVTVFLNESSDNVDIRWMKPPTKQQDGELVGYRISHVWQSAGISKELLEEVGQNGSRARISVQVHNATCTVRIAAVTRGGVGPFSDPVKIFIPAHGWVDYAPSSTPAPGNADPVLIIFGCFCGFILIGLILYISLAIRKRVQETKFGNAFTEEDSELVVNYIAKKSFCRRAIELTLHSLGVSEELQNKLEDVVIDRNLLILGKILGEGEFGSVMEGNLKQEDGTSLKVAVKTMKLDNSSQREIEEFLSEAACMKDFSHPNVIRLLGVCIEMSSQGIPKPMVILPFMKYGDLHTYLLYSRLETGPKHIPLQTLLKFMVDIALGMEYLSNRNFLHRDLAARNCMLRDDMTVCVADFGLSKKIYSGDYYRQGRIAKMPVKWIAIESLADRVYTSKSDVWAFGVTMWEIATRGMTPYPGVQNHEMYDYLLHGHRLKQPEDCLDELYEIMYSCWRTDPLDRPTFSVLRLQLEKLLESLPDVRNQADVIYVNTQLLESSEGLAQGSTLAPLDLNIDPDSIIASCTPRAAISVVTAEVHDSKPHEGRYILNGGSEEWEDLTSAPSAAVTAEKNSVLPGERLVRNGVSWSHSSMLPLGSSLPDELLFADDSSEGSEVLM
Nature of the assay: Selectivity interaction (KinomeScan (DiscoverX)) EUB0000655a MERTK. The conditions noted are these: at 10 µM.

In assay [6] the target is T3, Bromodomain-containing protein 1 (Homo sapiens) (UniProt O95696).
T3 sequence (whole entry): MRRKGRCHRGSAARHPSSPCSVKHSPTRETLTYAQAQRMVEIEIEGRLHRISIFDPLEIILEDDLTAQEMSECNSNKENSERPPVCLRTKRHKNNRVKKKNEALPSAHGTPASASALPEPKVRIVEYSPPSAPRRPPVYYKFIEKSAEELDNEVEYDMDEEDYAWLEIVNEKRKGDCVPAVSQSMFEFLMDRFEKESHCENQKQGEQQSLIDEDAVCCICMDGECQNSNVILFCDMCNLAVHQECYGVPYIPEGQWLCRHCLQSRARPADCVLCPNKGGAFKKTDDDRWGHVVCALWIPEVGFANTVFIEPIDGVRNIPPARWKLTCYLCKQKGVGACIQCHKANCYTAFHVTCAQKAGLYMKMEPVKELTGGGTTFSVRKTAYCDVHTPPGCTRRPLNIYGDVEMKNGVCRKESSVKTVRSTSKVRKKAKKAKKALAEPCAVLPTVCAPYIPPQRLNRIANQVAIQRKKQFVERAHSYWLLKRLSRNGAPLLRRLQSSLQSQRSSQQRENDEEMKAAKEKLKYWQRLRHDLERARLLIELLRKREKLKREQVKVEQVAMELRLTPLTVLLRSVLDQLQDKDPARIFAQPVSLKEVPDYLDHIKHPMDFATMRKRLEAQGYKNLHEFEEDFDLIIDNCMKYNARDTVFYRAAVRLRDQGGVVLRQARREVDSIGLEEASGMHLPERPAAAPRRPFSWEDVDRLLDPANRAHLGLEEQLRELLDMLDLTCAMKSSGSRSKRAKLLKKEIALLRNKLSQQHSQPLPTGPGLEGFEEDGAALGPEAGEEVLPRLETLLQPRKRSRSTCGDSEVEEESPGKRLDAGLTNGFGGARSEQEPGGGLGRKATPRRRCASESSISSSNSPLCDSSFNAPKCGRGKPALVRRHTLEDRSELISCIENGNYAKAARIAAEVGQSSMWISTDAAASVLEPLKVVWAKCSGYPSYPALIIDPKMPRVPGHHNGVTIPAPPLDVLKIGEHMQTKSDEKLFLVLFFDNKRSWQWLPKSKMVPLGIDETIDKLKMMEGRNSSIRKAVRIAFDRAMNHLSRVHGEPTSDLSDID
Description: Selectivity interaction (Bromodomain panel (DSF asssay)) EUB0000270b BRD1.

Sequence of MAP/microtubule affinity-regulating kinase 3 (Homo sapiens) (P27448 whole entry, looked up): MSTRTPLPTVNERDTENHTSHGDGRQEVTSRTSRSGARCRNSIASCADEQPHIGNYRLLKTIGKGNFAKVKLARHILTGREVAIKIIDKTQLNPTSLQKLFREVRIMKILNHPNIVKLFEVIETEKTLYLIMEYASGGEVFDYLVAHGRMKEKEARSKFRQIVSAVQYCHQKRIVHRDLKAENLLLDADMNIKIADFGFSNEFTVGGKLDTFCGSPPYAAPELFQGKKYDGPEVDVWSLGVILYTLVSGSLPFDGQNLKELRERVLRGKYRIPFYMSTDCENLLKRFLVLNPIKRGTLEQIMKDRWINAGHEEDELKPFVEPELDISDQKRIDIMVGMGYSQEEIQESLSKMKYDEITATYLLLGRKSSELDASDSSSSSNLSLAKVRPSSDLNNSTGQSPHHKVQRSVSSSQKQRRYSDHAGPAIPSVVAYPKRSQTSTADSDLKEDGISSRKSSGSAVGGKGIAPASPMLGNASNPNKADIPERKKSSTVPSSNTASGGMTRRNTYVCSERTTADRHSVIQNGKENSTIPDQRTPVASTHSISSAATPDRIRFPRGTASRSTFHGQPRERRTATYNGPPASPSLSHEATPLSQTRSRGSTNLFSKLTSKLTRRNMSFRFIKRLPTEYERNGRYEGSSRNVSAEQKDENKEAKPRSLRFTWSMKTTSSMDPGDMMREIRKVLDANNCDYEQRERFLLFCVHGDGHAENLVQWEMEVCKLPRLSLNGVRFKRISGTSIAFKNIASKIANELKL
Sequence of Calcium/calmodulin-dependent protein kinase type II subunit beta (Homo sapiens) (Q13554 whole entry): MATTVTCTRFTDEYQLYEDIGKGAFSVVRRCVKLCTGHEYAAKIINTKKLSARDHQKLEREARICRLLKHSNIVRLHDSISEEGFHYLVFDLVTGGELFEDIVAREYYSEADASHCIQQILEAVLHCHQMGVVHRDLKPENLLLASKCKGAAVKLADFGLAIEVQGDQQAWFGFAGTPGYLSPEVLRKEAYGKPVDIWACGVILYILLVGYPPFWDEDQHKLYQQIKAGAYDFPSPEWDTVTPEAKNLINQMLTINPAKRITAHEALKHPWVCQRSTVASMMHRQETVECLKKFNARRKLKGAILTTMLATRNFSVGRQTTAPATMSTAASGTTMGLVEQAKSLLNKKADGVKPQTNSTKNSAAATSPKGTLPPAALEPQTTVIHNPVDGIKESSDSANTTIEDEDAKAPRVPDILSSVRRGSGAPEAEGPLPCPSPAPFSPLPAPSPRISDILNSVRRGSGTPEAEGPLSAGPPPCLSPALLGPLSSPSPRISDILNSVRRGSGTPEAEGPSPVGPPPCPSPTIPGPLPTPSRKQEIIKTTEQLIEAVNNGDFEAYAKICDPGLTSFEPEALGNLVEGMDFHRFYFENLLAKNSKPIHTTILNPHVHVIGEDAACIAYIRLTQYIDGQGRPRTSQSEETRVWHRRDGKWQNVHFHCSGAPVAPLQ
Sequence of Interferon-induced, double-stranded RNA-activated protein kinase (Homo sapiens) (P19525 whole entry): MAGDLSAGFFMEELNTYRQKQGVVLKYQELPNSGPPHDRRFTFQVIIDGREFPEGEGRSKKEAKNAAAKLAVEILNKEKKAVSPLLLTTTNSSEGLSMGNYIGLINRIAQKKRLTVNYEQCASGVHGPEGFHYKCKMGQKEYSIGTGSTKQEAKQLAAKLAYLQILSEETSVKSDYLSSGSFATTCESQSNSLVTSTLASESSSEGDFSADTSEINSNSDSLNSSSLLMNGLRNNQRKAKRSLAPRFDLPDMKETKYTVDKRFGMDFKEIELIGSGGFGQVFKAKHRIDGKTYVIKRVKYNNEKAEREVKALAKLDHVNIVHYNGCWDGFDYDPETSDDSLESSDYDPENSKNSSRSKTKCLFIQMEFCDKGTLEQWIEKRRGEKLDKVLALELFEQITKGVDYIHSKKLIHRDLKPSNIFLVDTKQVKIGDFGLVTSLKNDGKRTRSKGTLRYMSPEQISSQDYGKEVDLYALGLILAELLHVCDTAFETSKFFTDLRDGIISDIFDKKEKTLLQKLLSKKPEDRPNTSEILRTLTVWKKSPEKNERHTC

For `Cn1cc(-n2cnc3c(NCc4nc5cc(Cl)c(Cl)cc5[nH]4)nc(N4CCOCC4)nc32)cn1`, the % of control in assay [1] is -8.04%.
Turning to `COCC(=O)NC/C=C/c1ccc2ncnc(Nc3ccc(Oc4ccc(C)nc4)c(C)c3)c2c1` [CP-724714], the % of control in assay [2] came out at 99%.
As for `CNC(=O)Nc1ccc(-c2nc(N3CC4CCC(C3)O4)c3cnn(C4CCC5(CC4)OCCO5)c3n2)cc1`, the % of inhibition in assay [3] turned out to be 8%.
`CC[C@@H]1[C@H](F)C(=O)N[C@@H]1COc1nccc2cc(C(N)=O)c(OC)cc12` [ZIMLOVISERTIB] displayed a % of inhibition in assay [4] of 2.3%.
For the molecule `CN(C)CCOc1ccc(-c2nc(-c3ccncc3)c(-c3ccc4c(c3)CC/C4=N\O)[nH]2)cc1`, in assay [5], the % of control was found to be 87%.
In the case of `Cc1cc(CN)cc(C)c1-c1ncn(C)c1-c1cncn1C`, in assay [6], the dTM is -2.24 K.
